This is an account of results in ChEMBL document CHEMBL4052779, “Isosorbide-based peptidomimetics as inhibitors of hepatitis C virus serine protease” (Bioorg Med Chem Lett, 2017).

pIC50: −log10 of the molar value.

The nature of data set [1]: Solubility of the compound in aqueous buffer. Type of data set: physicochemical.
Data set [2] has as its system Hepacivirus hominis. The data set is described as follows: Inhibition of recombinant HCV NS3/4A protease at 100 uM pre-incubated for 10 mins followed by 5-FAM/QXL520 substrate addition and measured after 60 mins by FRET analysis relative to control.
Data set [3] in a line: Inhibition of recombinant HCV NS3/4A protease pre-incubated for 10 mins followed by 5-FAM/QXL520 substrate addition and measured after 60 mins by FRET analysis relative to control. Also noted: species or system Hepacivirus hominis.
Data set [4] deals with Hepacivirus hominis. The data set is described as follows: Inhibition of recombinant wild type HCV NS3/4A protease assessed as residual enzyme activity at 100 uM pre-incubated for 10 mins followed by 5-FAM/QXL520 substrate addition and measured after 60 mins by FRET analysis relative to control.
Data set [5] relates to Hepatitis C virus serine protease, NS3/NS4A (Hepatitis C virus), D2K2A8+A3EZI9 [D168A]. The data set is described as follows: Inhibition of recombinant HCV NS3/4A protease D168A mutant assessed as residual enzyme activity at 100 uM pre-incubated for 10 mins followed by 5-FAM/QXL520 substrate addition and measured after 60 mins by FRET analysis relative to control. To be noted: Hepacivirus hominis.

The test system of data set [6] is Hepacivirus hominis. The data set is described as follows: Inhibition of recombinant HCV NS3/4A protease V170A mutant assessed as residual enzyme activity at 100 uM pre-incubated for 10 mins followed by 5-FAM/QXL520 substrate addition and measured after 60 mins by FRET analysis relative to control.

Take `O=C(N[C@H]1CO[C@H]2[C@@H]1OC[C@@H]2OCc1ccccc1)/C(=C/c1ccco1)NC(=O)c1ccccc1`: the solubility result in data set [1] is “Soluble”. For the same molecule, the inhibition with Hepacivirus hominis [2] came out at 81.8%. Besides, the pIC50 in data set [3] is 4.44. The Activity in the data set on Hepacivirus hominis [4] worked out at 18.2%; in data set [5], 36.7%; with Hepacivirus hominis [6], 6.7%.

Consider `O=C(N[C@H]1CO[C@H]2[C@@H]1OC[C@@H]2OCc1ccccc1)/C(=C/c1cc2ccccc2s1)NC(=O)c1ccccc1`, for which the solubility entry in data set [1] is recorded as “Soluble”. The inhibition in the data set on Hepacivirus hominis [2] amounted to 30.3%.

On to `C[C@@H](O)[C@H](NC(=O)OC(C)(C)C)C(=O)N[C@H]1CO[C@H]2[C@@H]1OC[C@@H]2OCc1ccccc1`, for which the solubility entry in data set [1] was “Insoluble”.

As for `CC(C)(C)OC(=O)N1CCC[C@H]1C(=O)N[C@H]1CO[C@H]2[C@@H]1OC[C@@H]2OCc1ccccc1`, the solubility result in data set [1] is recorded as “Insoluble”.

`CC(C)(C)OC(=O)N[C@@H](CCCN/C(=N\C(=O)OCc1ccccc1)NC(=O)OCc1ccccc1)C(=O)N[C@H]1CO[C@H]2[C@@H]1OC[C@@H]2OCc1ccccc1`: the solubility result in data set [1] is on record as “Insoluble”.

On to `CC(C)(C)OC(=O)N[C@@H](Cc1c[nH]c2ccccc12)C(=O)N[C@H]1CO[C@H]2[C@@H]1OC[C@@H]2OCc1ccccc1`, for which, in data set [1], the solubility entry is on record as “Insoluble”.

In the case of `O=C(N[C@@H]1CO[C@H]2[C@@H]1OC[C@H]2OCc1ccccc1)/C(=C/c1cccs1)NC(=O)c1ccccc1`, the solubility entry in data set [1] was “Insoluble”. Also, the inhibition in the data set with Hepacivirus hominis [2] is 45%.

For the molecule `COc1ccc(CO[C@H]2CO[C@H]3[C@@H]2OC[C@@H]3NC(=O)/C(=C/c2cccs2)NC(=O)c2ccccc2)cc1`, the solubility result in data set [1] is given as “Insoluble”.

What is called inhibition is the percentage by which the read-out fell short of the control. For orientation: pIC50 means the IC50 on a negative log10 scale, so that one unit is a factor of ten.
